Assay results as given in US20250230147A1, “LACTAMS AS CBL-B INHIBITORS” (Genentech, Inc., priority 2021, published 2025).
Where a name gives a salt, the structure may show the parent alone. Blank lines part the entries; values can stand above or below the compound they belong to.

Key:
c-Cbl = c-Cbl (Homo sapiens (Human), UniProt P22681); assay: C-Cbl LCK Ub TR-FRET assay (c-cbl Lck HTRF); format: biochemical; details: for (fold-selectivity): C-cbl Lck HTRF IC50 relative to Cbl-b Lck HTRF IC50
How it was run: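 Detection reagents added, brief spin, 20 min RT. IC50 fit normalized to no-LCK (low) and DMSO (high) controls.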

Cbl-b = Cbl-b (Homo sapiens (Human), UniProt Q13191); assay: Cbl-b LCK Ub TR-FRET assay (Cbl-b Lck HTRF); format: biochemical
Chain of Cbl-b (Q13191 40-426): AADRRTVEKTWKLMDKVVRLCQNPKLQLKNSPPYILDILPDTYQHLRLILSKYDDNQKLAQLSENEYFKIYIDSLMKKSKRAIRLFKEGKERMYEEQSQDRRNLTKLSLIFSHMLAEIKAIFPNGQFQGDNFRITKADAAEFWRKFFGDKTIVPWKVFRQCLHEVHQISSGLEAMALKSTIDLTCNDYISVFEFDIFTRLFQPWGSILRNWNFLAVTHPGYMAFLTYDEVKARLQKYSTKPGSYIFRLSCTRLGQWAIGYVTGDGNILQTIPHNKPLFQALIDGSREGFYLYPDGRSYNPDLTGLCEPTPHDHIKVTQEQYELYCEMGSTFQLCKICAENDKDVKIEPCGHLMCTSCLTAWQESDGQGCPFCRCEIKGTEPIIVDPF
How it was run: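 Biotin-Cbl-b preincubated with compound (10-point 3-fold series) 60 min, then His-LCK with 1 mM ATP (2× mixture) added for 90 min at room temperature. Ubiquitination detected by TR-FRET using HA-ubiquitin/UBE2D2 adduct, anti-HA-D2 and streptavidin-Eu; IC50 normalised to no-LCK and DMSO controls.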

Chain of c-Cbl (P22681 47-435): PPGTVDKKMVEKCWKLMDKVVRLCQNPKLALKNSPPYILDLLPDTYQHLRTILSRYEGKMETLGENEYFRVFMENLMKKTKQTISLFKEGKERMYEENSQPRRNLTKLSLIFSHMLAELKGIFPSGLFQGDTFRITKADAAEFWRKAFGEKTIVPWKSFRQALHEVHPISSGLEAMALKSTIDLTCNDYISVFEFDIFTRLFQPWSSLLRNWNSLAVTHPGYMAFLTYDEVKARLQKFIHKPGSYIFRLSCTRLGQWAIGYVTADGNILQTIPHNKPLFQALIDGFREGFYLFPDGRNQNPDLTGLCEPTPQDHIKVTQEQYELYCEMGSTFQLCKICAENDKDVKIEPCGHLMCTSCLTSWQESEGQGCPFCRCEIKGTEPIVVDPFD

SMILES: Cc1ncn(CC2(c3cccc(N4Cc5c(cc(CN6CCN(C)C[C@@H]6C(C)C)cc5C(F)(F)F)C4=O)c3)COC2)n1 [Compound 255, (S)-6-((2-isopropyl-4-methylpiperazin-1-yl)methyl)-2-(3-(3-((3-methyl-1H-1,2,4-triazol-1-yl)methyl)oxetan-3-yl)phenyl)-4-(trifluoromethyl)isoindolin-1-one]
- IC50 (c-Cbl): ≥ 20000 nM
- (fold-selectivity) (c-Cbl): (1.0x)
- IC50 (Cbl-b): 20000 nM

SMILES: Cn1cnnc1[C@@H](F)C1(c2cccc(N3Cc4c(cc(CN5CC6(C5)CC6(F)F)cc4C(F)(F)F)C3=O)c2)COC1 [Compound 154, (S)-6-((1,1-difluoro-5-azaspiro[2.3]hexan-5-yl)methyl)-2-(3-(3-(fluoro(4-methyl-4H-1,2,4-triazol-3-yl)methyl)oxetan-3-yl)phenyl)-4-(trifluoromethyl)isoindolin-1-one]
- IC50 (c-Cbl): 230 nM
- (fold-selectivity) (c-Cbl): 3.2x
- IC50 (Cbl-b): 72 nM

SMILES: CC1CCN(CCNc2cc(C3(Cc4nncn4C)CCC3)cc(N3Cc4c(cc(CNC5(C)CCC5)cc4C(F)(F)F)C3=O)n2)CC1 [Compound 309, 2-(4-(1-((4-methyl-4H-1,2,4-triazol-3-yl)methyl)cyclobutyl)-6-((2-(4-methylpiperidin-1-yl)ethyl)amino)pyridin-2-yl)-6-(((1-methylcyclobutyl)amino)methyl)-4-(trifluoromethyl)isoindolin-1-one formate]
- IC50 (c-Cbl): 520 nM
- IC50 (Cbl-b): 540 nM

SMILES: Cn1cnnc1[C@@H](F)C1(c2cccc(N3Cc4c(cc(CN5CC(C)(O)C5)cc4C(F)(F)F)C3=O)c2)CC1 (single isomer, unassigned) [Compound 29]
- IC50 (c-Cbl): 230 nM
- (fold-selectivity) (c-Cbl): 1.8x
- IC50 (Cbl-b): 120 nM

SMILES: Cn1cnnc1[C@@H](F)C1(c2cccc(N3Cc4c(cc(CN5CC6(CCC6)C5)cc4C(F)(F)F)C3=O)c2)COC1 [Compound 166, (S)-6-(2-azaspiro[3.3]heptan-2-ylmethyl)-2-(3-(3-(fluoro(4-methyl-4H-1,2,4-triazol-3-yl)methyl)oxetan-3-yl)phenyl)-4-(trifluoromethyl)isoindolin-1-one]
- IC50 (c-Cbl): 310 nM
- (fold-selectivity) (c-Cbl): 1.8x
- IC50 (Cbl-b): 170 nM

SMILES: CC(C)[C@H]1CN(C)CCN1Cc1cc2c(c(C(F)(F)F)c1)CN(c1cccc(C3([C@@H](F)c4nncn4-c4ccccc4)COC3)c1)C2=O [Compound 259, 2-(3-(3-((R)-fluoro(4-phenyl-4H-1,2,4-triazol-3-yl)methyl)oxetan-3-yl)phenyl)-6-(((S)-2-isopropyl-4-methylpiperazin-1-yl)methyl)-4-(trifluoromethyl)isoindolin-1-one]
- IC50 (c-Cbl): 3100 nM
- (fold-selectivity) (c-Cbl): (1.0x)
- IC50 (Cbl-b): 3100 nM

SMILES: Cn1cnnc1[C@H](F)C1(c2cccc(N3Cc4c(Br)cccc4C3=O)c2)COC1 [Compound 203, (R)-4-bromo-2-(3-(3-(fluoro(4-methyl-4H-1,2,4-triazol-3-yl)methyl)oxetan-3-yl)phenyl)isoindolin-1-one]
- IC50 (c-Cbl): 400 nM
- (fold-selectivity) (c-Cbl): 2.0x
- IC50 (Cbl-b): 200 nM

SMILES: COCC1(F)CN(Cc2cc3c(c(C(F)(F)F)c2)CN(c2cccc(C4([C@H](F)c5nncn5C)COC4)c2)C3=O)C1 [Compound 136, (S)-2-(3-(3-(fluoro(4-methyl-4H-1,2,4-triazol-3-yl)methyl)oxetan-3-yl)phenyl)-6-((3-fluoro-3-(methoxymethyl)azetidin-1-yl)methyl)-4-(trifluoromethyl)isoindolin-1-one]
- IC50 (c-Cbl): 560 nM
- (fold-selectivity) (c-Cbl): 2.0x
- IC50 (Cbl-b): 280 nM

SMILES: Cn1cnnc1[C@H](F)C1(c2cccc(N3Cc4c(cc(CN5CCC56COC6)cc4C(F)(F)F)C3=O)c2)COC1 [Compound 175, (R)-6-(6-oxa-1-azaspiro[3.3]heptan-1-ylmethyl)-2-(3-(3-(fluoro(4-methyl-4H-1,2,4-triazol-3-yl)methyl)oxetan-3-yl)phenyl)-4-(trifluoromethyl)isoindolin-1-one]
- IC50 (c-Cbl): 350 nM
- (fold-selectivity) (c-Cbl): 2.5x
- IC50 (Cbl-b): 150 nM

SMILES: Cn1cnnc1C[C@]1(c2cccc(N3Cc4c(cccc4C(F)(F)F)C3=O)c2)C[C@H](F)C1 [Compound 100, 2-(3-((1r,3s)-3-fluoro-1-((4-methyl-4H-1,2,4-triazol-3-yl)methyl)cyclobutyl)phenyl)-4-(trifluoromethyl)isoindolin-1-one]
- IC50 (c-Cbl): 380 nM
- (fold-selectivity) (c-Cbl): 1.9x
- IC50 (Cbl-b): 190 nM

The next compounds have a lower IC50 (c-Cbl) than those just listed; values first:

- IC50 (c-Cbl): 13 nM
- (fold-selectivity) (c-Cbl): (1.3x)
- IC50 (Cbl-b): 9.9 nM
SMILES: Cn1cnnc1CC1(c2cc(NC3CCCC3)nc(N3Cc4c(cc(CNC5(C)CCC5)cc4C(F)(F)F)C3=O)c2)COC1 [Compound 298, 2-(6-(cyclopentylamino)-4-(3-((4-methyl-4H-1,2,4-triazol-3-yl)methyl)oxetan-3-yl)pyridin-2-yl)-6-(((1-methylcyclobutyl)amino)methyl)-4-(trifluoromethyl)isoindolin-1-one]

- IC50 (c-Cbl): 99 nM
- (fold-selectivity) (c-Cbl): (101x)
- IC50 (Cbl-b): 89 nM
SMILES: Cl.Cn1cnnc1CC1(c2cc(NCc3ccncc3)nc(N3Cc4c(cc(CNC5(C)CCC5)cc4C(F)(F)F)C3=O)c2)CCC1 [Compound 380, 2-(4-(1-((4-methyl-4H-1,2,4-triazol-3-yl)methyl)cyclobutyl)-6-((pyridin-4-ylmethyl)amino)pyridin-2-yl)-6-(((1-methylcyclobutyl)amino)methyl)-4-(trifluoromethyl)isoindolin-1-one hydrochloride]

- IC50 (c-Cbl): 34 nM
- (fold-selectivity) (c-Cbl): (1.2x)
- IC50 (Cbl-b): 28 nM
SMILES: Cn1cnnc1CC1(c2cccc(N3Cc4c(cc(CNC(C)(C)CF)cc4C(F)(F)F)C3=O)c2)CC(F)(F)C1 [Compound 372, 2-(3-(3,3-difluoro-1-((4-methyl-4H-1,2,4-triazol-3-yl)methyl)cyclobutyl)phenyl)-6-(((1-fluoro-2-methylpropan-2-yl)amino)methyl)-4-(trifluoromethyl)isoindolin-1-one]

- IC50 (c-Cbl): 85 nM
- (fold-selectivity) (c-Cbl): 1.4x
- IC50 (Cbl-b): 61 nM
SMILES: Cn1cnnc1[C@H](F)C1(c2cccc(N3Cc4c(cc(CN5CCC[C@@H](CO)C5)cc4C(F)(F)F)C3=O)c2)COC1 [Compound 151, 2-(3-(3-((R)-fluoro(4-methyl-4H-1,2,4-triazol-3-yl)methyl)oxetan-3-yl)phenyl)-6-(((R)-3-(hydroxymethyl)piperidin-1-yl)methyl)-4-(trifluoromethyl)isoindolin-1-one]

- IC50 (c-Cbl): 8.4 nM
- (fold-selectivity) (c-Cbl): (0.58x)
- IC50 (Cbl-b): 14 nM
SMILES: CCN1CCN(Cc2cc3c(c(C(F)(F)F)c2)CN(c2cccc(C4([C@@H](F)c5nncn5C)CC(F)(F)C4)c2)C3=O)[C@@H](C(C)C)C1 [Compound 460, 2-(3-(3,3-difluoro-1-((R)-fluoro(4-methyl-4H-1,2,4-triazol-3-yl)methyl)cyclobutyl)phenyl)-6-(((S)-4-ethyl-2-isopropylpiperazin-1-yl)methyl)-4-(trifluoromethyl)isoindolin-1-one]

- IC50 (c-Cbl): 7.1 nM
- (fold-selectivity) (c-Cbl): (0.58x)
- IC50 (Cbl-b): 12 nM
SMILES: CC(C)[C@H]1CN(Cc2cc3c(c(C(F)(F)F)c2)CN(c2cccc(C4(Cc5nncn5C)CC(F)(F)C4)c2)C3=O)CCN1C [Compound 439, (S)-2-(3-(3,3-difluoro-1-((4-methyl-4H-1,2,4-triazol-3-yl)methyl)cyclobutyl)phenyl)-6-((3-isopropyl-4-methylpiperazin-1-yl)methyl)-4-(trifluoromethyl)isoindolin-1-one]

- IC50 (c-Cbl): 8.2 nM
- (fold-selectivity) (c-Cbl): (0.82x)
- IC50 (Cbl-b): 9.9 nM
SMILES: CCN1CCN(Cc2cc3c(c(C(F)(F)F)c2)CN(c2cccc(C4([C@H](F)c5nncn5C)CC(F)(F)C4)c2)C3=O)[C@@H](C(C)C)C1 [Compound 461, 2-(3-(3,3-difluoro-1-((S)-fluoro(4-methyl-4H-1,2,4-triazol-3-yl)methyl)cyclobutyl)phenyl)-6-(((S)-4-ethyl-2-isopropylpiperazin-1-yl)methyl)-4-(trifluoromethyl)isoindolin-1-one]

- IC50 (c-Cbl): 7.8 nM
- (fold-selectivity) (c-Cbl): (1.4x)
- IC50 (Cbl-b): 5.5 nM
SMILES: CC(C)[C@H]1CN(C)CCN1Cc1cc2c(c(C(F)(F)F)c1)CN(c1cc(C3(Cc4nncn4C)COC3)cc(OC3CCCC3)n1)C2=O [Compound 293, (S)-2-(6-(cyclopentyloxy)-4-(3-((4-methyl-4H-1,2,4-triazol-3-yl)methyl)oxetan-3-yl)pyridin-2-yl)-6-((2-isopropyl-4-methylpiperazin-1-yl)methyl)-4-(trifluoromethyl)isoindolin-1-one]

- IC50 (c-Cbl): 15 nM
- (fold-selectivity) (c-Cbl): (1.2x)
- IC50 (Cbl-b): 12 nM
SMILES: CC(C)[C@H]1CN(C)CCN1Cc1cc2c(c(C(F)(F)F)c1)CN(c1cc(C3([C@@H](F)c4nncn4C)CCC3)cc(NCC3CC3)n1)C2=O [Compound 278, 2-(6-((cyclopropylmethyl)amino)-4-(1-((R)-fluoro(4-methy-4H-1,2,4-triazol-3-yl)methyl)cyclobutyl)pyridin-2-yl)-6-(((S)-2-isopropyl-4-methylpiperazin-1-yl)methyl)-4-(trifluoromethyl)isoindolin-1-one]

- IC50 (c-Cbl): 15 nM
- (fold-selectivity) (c-Cbl): (0.66x)
- IC50 (Cbl-b): 23 nM
SMILES: CCCNCc1cc2c(c(C(F)(F)F)c1)CN(c1cc(NCC)cc(C3(Cc4nncn4C)CCC3)c1)C2=O [Compound 458, 2-(3-(ethylamino)-5-(1-((4-methyl-4H-1,2,4-triazol-3-yl)methyl)cyclobutyl)phenyl)-6-((propylamino)methyl)-4-(trifluoromethyl)isoindolin-1-one]

- IC50 (c-Cbl): 93 nM
- (fold-selectivity) (c-Cbl): (1.2x)
- IC50 (Cbl-b): 77 nM
SMILES: CC(C)[C@H]1CN(C)CCN1Cc1cc2c(c(C(F)(F)F)c1)CN(c1cccc(C3([C@@H](F)c4nncn4C4CC4)COC3)c1)C2=O [Compound 486, 2-(3-(3-((R)-(4-cyclopropyl-4H-1,2,4-triazol-3-yl)fluoromethyl)oxetan-3-yl)phenyl)-6-(((S)-2-isopropyl-4-methylpiperazin-1-yl)methyl)-4-(trifluoromethyl)isoindolin-1-one]
